Literature values in patent US6387861B1, “Detergent compositions” (Unilever Home & Personal Care USA division of Conopco, Inc., priority 1999, dated 2002).
Where two headings read alike, the source gives them in different places.

Conditions: 20° C.

Row | Compound | Water Solubility (other common materials) [g/100 g] | Water Solubility (grams of solid to form a saturated solution in 100 grams of water, highly water-soluble materials) [g/100 g]
1 | O=BO[O-].[Na+] [Sodium perborate anhydrous] | 3.7 | –
2 | O=P(O)(O)OP(=O)(O)OP(=O)(O)O [Sodium tripolyphosphate anhydrous] | 15 | –
3 | NC(N)=O [Urea] | – | >100
